From patent US20090215857A1 (Pfizer Products Inc., priority 2005, published 2009)
Structures can show the parent of a compound that is named as a salt.

How the values were obtained:
[1] = molecular target: T1, human serotonin transporter (Homo sapiens, UniProt P31645); experiment: hSERT receptor binding ([125I]-RTI-55 radioligand); conditions: membranes of HEK-293 cells transfected with human serotonin transporter cDNA; 50 pM [125I]-RTI-55; IC50 converted by Cheng-Prusoff; read-out: SERT Ki
T1 construct: expressed in transfected cells; host or cells: HEK-293
T1 sequence (P31645 whole entry): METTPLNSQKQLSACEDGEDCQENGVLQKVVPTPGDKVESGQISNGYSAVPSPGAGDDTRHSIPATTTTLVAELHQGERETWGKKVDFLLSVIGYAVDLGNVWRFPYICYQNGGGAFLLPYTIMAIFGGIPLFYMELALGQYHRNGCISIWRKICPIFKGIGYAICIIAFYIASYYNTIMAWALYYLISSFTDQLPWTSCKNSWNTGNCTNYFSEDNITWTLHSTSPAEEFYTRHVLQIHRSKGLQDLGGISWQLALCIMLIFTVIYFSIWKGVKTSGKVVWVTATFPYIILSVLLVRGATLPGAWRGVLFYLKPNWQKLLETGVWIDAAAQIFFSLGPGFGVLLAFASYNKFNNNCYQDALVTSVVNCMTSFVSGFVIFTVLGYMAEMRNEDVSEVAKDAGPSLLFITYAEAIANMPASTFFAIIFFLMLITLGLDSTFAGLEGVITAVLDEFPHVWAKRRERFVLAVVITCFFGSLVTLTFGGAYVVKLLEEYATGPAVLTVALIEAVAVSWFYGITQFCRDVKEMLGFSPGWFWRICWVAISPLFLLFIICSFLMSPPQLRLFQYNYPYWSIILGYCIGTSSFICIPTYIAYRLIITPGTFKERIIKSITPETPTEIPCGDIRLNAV
Method: (§1) Cell pastes of HEK-293 cells transfected with a human serotonin transporter cDNA were prepared. The cell pastes were resuspended in 400 to 700 ml of Krebs-HEPES assay buffer (25 mM HEPES, 122 mM NaCl, 3 mM KCl, 1.2 mM MgSO4, 1.3 mM CaCl2, and 11 mM glucose, pH 7.4) with a Polytron homogenizer at Setting 7 for 30 seconds. Aliquots of membranes (˜2.5 mg/ml protein) were stored in liquid nitrogen until used.
Assays were set up in FlashPlates pre-coated with 0.1% PEI in a total volume of 250 μl containing: test compound (10^−5M to 10^−12M), cell membranes, and 50 pM [^125I]-RTI-55 (Perkin Elmer, NEX-272; specific activity 2200 Ci/mmol). The reaction was incubated and gently agitated for 90 minutes at room temperature, and terminated by removal of assay volume. Plates were covered, and bound [^125I]-RTI-55 was determined using a Wallac Trilux Beta Plate Counter. Test compounds were run in duplicate, and specific binding was defined as the difference between binding in the presence and absence of 10 μM citalopram.
Excel and GraphPad Prism software were used for data calculation and analysis. IC50 values were converted to Ki values using the Cheng-Prusoff equation.

[2] = molecular target: T2, human norepinephrine transporter (Homo sapiens, UniProt P23975); experiment: hNET receptor binding ([125I]-RTI-55 radioligand); conditions: membranes of HEK-293 cells transfected with human norepinephrine transporter cDNA; 50 pM [125I]-RTI-55; IC50 converted by Cheng-Prusoff; read-out: NET Ki
T2 construct: expressed in transfected cells; host or cells: HEK-293
T2 sequence (P23975 whole entry): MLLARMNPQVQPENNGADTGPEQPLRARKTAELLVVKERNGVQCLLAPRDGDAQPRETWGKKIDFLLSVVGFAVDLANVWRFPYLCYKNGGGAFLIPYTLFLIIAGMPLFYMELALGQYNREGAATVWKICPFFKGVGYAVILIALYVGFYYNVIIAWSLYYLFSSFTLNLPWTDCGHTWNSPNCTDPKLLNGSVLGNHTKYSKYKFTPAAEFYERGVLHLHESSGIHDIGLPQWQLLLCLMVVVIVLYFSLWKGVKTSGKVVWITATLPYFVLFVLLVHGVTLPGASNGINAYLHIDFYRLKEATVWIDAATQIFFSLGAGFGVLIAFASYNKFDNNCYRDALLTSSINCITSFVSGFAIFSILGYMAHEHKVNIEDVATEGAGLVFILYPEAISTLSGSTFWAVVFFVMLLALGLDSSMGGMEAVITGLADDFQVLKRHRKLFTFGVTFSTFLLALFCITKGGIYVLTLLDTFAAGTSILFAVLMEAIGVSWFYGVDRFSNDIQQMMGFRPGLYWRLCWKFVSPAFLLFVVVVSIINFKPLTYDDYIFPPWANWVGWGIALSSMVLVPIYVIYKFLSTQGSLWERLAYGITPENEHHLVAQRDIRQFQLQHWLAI
Method: as §1, with “norepinephrine” for “serotonin”, “setting” for “Setting”, “(5” for “(˜2.5”
The binding assay was set up in Beckman deep-well polypropylene plates with a total volume of 250 μl containing: test compound (10^−5M to 10^−12M), cell membranes, and 50 pM [^125I]-RTI-55 (Perkin Elmer, NEX-272; specific activity 2200 Ci/mmol). The reaction was incubated by gentle agitation for 90 minutes at room temperature and was terminated by filtration through Whatman GF/C filter plates using a Brandel 96-well plate harvester. Scintillation fluid (100 μl) was added to each well, and bound [^125I]-RTI-55 was determined using a Wallac Trilux Beta Plate Counter. Test compounds were run in duplicate, and specific binding was defined as the difference between binding in the presence and absence of 10 μM desipramine.
Excel and GraphPad Prism software were used for data calculation and analysis. IC50 values were converted to K, values using the Cheng-Prusoff equation.

| SMILES | Ki [1] | Ki [2] |
| --- | --- | --- |
| c1ccc(-c2cnc3[nH]ccc3c2)c(CO[C@H]2CCNC2)c1 [Example D-124, (S)-5-[2-(Pyrrolidin-3-yloxymethyl)-phenyl]-1H-pyrrolo[2,3-b]pyridine] | 2730 nM | 7400 nM |
| CC(C)N(C(=O)c1ccccc1-c1ccccc1CO[C@H]1CCNC1)C(C)C [Example D-5, (S)-2′-(Pyrrolidin-3-yloxymethyl)-biphenyl-2-carboxylic acid diisopropylamide] | 197 nM | 17.9 nM |
| Fc1ccc(-c2ccc(F)c(Cl)c2)c(CO[C@H]2CCNC2)c1 [Example D-73, (S)-3-(3′-Chloro-4,4′-difluoro-biphenyl-2-ylmethoxy)-pyrrolidine] | 49.7 nM | 146 nM |
| Cc1cc(C)cc(-c2ccc(F)cc2CO[C@H]2CCNC2)c1 [Example D-67, (S)-3-(4-Fluoro-3′,5′-dimethyl-biphenyl-2-ylmethoxy)-pyrrolidine] | 116 nM | 377 nM |
| Oc1ccc(-c2ccc(F)cc2CO[C@H]2CCNC2)cc1 [Example D-99, (S)-4′-Fluoro-2′-(pyrrolidine-3-yloxymethyl)-biphenyl-4-ol] | 659 nM | 43.1 nM |
| Fc1ccc(-c2ccccc2CO[C@@H]2CCNC2)c(F)c1 [Example A-20, (R)-3-(2′,4′-Difluoro-biphenyl-2-ylmethoxy)-pyrrolidine fumarate] | 313 nM | 127 nM |
| Cc1ccc(-c2ccc(F)cc2CO[C@H]2CCNC2)cc1C [Example D-104, (S)-3-(4-Fluoro-3′,4′-dimethyl-biphenyl-2-ylmethoxy)-pyrrolidine] | 220 nM | 112 nM |
| Fc1ccc(-c2ccccc2OCc2ccccc2)c(CO[C@H]2CCNC2)c1 [Example D-97, (S)-3-(2′-Benzyloxy-4-fluoro-biphenyl-2-ylmethoxy)-pyrrolidine] | 286 nM | 148 nM |
| Cc1cc(C)n(-c2cccc(-c3ccc(F)cc3CO[C@H]3CCNC3)c2)n1 [Example D-112, (S)-1-[4′-Fluoro-2′-(pyrrolidin-3-yloxymethyl)-biphenyl-3-yl]-3,5-dimethyl-1H-pyrazole] | 107 nM | 9630 nM |
| CS(=O)(=O)c1ccc(-c2ccc(F)cc2CO[C@H]2CCNC2)cc1 [Example D-102, (S)-3-(4-Fluoro-4′-methanesulfonyl-biphenyl-2-methoxy)-pyrrolidine] | ≥ 10000 nM | ≥ 10000 nM |
| N#Cc1cccc(-c2ccccc2CO[C@H]2CCNC2)c1 [Example D-53] | ≥ 10000 nM | ≥ 10000 nM |
| COc1ccc(-c2ccccc2CO[C@H]2CCNC2)cn1 [Example A-29, (S)-2-Methoxy-5-[2-(pyrrolidin-3-yloxymethyl)-phenyl]-pyridine fumarate] | 2470 nM | 2910 nM |
| Fc1cccc(-c2ccccc2CO[C@H]2CCNC2)c1 [Example D-6, (S)-3-(3′-Fluoro-biphenyl-2-ylmethoxy)-pyrrolidine] | 18.4 nM | 18.5 nM |
| Fc1ccc(-c2c(F)cccc2CO[C@H]2CCNC2)c(F)c1 [Example A-34, (3S)-3-[(2′,4′,6-trifluorobiphenyl-2-yl)methoxy]pyrrolidine hydrochloride] | 439 nM | 23.3 nM |
| COc1cccc(-c2ccc(F)cc2CO[C@H]2CCNC2)c1F [Example D-93, (S)-3-(4,2′-Difluoro-3′-methoxy-biphenyl-2-ylmethoxy)-pyrrolidine] | 1450 nM | 1120 nM |
| Cc1cccc(-c2ccc(F)cc2CO[C@H]2CCNC2)c1 [Example D-69, (S)-3-(4-Fluoro-3′-methyl-biphenyl-2-ylmethoxy)-pyrrolidine] | 85.8 nM | 90.4 nM |
| Fc1ccc(-c2ccc(Cl)cc2)c(CO[C@H]2CCNC2)c1 [Example D-111, (S)-3-(4′-Chloro-4-fluoro-biphenyl-2-ylmethoxy)-pyrrolidine] | 155 nM | 97 nM |

| SMILES | Ki [1] | Ki [2] |
| --- | --- | --- |
| Cc1cc(-c2ccc(F)cc2CO[C@H]2CCNC2)ccc1F [Example D-94, (S)-3-(4,4′-Difluoro-3′-methyl-biphenyl-2-ylmethoxy)-pyrrolidine] | 88.4 nM | 102 nM |
| CC(C)Oc1ncccc1-c1ccccc1CO[C@H]1CCNC1 [Example D-119, (S)-2-Isopropoxy-3-[2-(pyrrolidin-3-yloxymethyl)-phenyl]-pyridine] | 2730 nM | 963 nM |
| COc1cc(-c2ccccc2CO[C@H]2CCNC2)cc(OC)c1OC [Example D-57, (S)-3-(3′,4′,5′-Trimethoxy-biphenyl-2-ylmethoxy)-pyrrolidine] | 589 nM | ≥ 10000 nM |
| CCOc1ccc(-c2ccccc2CO[C@H]2CCNC2)cc1 [Example D-40, (S)-3-(4′-Ethoxy-biphenyl-2-ylmethoxy)-pyrrolidine] | 919 nM | 1260 nM |
| Fc1ccc(-c2cc(F)ccc2CO[C@H]2CCNC2)c(F)c1 [Example A-23, (S)-(5,2′,4′-Trifluoro-biphenyl-2-ylmethoxy)-pyrrolidine hydrochloride] | 102 nM | 15.8 nM |
| N#Cc1cccc(-c2cccc(F)c2F)c1CO[C@H]1CCNC1 [Example E-3, (S)-2′,3′-Difluoro-2-(pyrrolidin-3-yloxymethyl)-biphenyl-3-carbonitrile fumarate] | 1570 nM | 560 nM |
| Cc1ccccc1-c1ccccc1CO[C@H]1CCNC1 [Example D-26, (S)-3-(2′-Methyl-biphenyl-2-ylmethoxy)-pyrrolidine] | 457 nM | 277 nM |
| Fc1ccc(-c2ccc(OC(F)(F)F)cc2)c(CO[C@H]2CCNC2)c1 [Example D-91, (S)-3-(4-Fluoro-4′-trifluoromethoxy-biphenyl-2-ylmethoxy)-pyrrolidine] | 16.5 nM | 935 nM |
| Clc1cccc(-c2ccccc2CO[C@H]2CCNC2)c1 [Example D-13, (S)-3-(3′-Chloro-biphenyl-2-ylmethoxy)-pyrrolidine] | 21.6 nM | 43.8 nM |
| c1ccc(-c2ccc3ccccc3c2)c(CO[C@H]2CCNC2)c1 [Example D-29, (S)-3-(2-Naphthalen-2-yl-benzyloxy)-pyrroldine] | 172 nM | 314 nM |
| Fc1ccc(-c2ccccc2CO[C@@H]2CCNC2)cc1F [Example A-13, (R)-3-(3′,4′-Difluoro-biphenyl-2-ylmethoxy)-pyrrolidine fumarate] | 54 nM | 66 nM |
| CC(C)Oc1ccc(-c2ccccc2CO[C@H]2CCNC2)cc1 [Example D-56, (S)-(4′-Isopropoxy-biphenyl-2-ylmethoxy)-pyrroldine] | 658 nM | ≥ 10000 nM |
| COc1ccc(-c2ccccc2CO[C@H]2CCNC2)cc1C [Example D-2, (S)-3-(4′-Methoxy-3′-methyl-biphenyl-2-ylmethoxy)-pyrrolidine] | 261 nM | 8.42 nM |
| Nc1ncccc1-c1ccccc1CO[C@H]1CCNC1 [Example D-121, (S)-3-[2-(Pyrrolidin-3-yloxymethyl)-phenyl]-pyridin-2-ylamine] | 5630 nM | ≥ 10000 nM |
| CC(C)Oc1ccccc1-c1ccccc1CO[C@H]1CCNC1 [Example A-19, (S)-3-(2′-Isopropoxy-biphenyl-2-ylmethoxy)-pyrrolidine fumarate] | 752 nM | 111 nM |
| Fc1ccc(-c2ccccc2CO[C@H]2CCNC2)cc1Cl [Example A-11, (S)-3-(3′-Chloro-4′-fluoro-biphenyl-2-ylmethoxy)-pyrrolidine hydrochloride] | 10.3 nM | 39.2 nM |
